Test results: ChEMBL document CHEMBL1201861, “Genomics of Drug Sensitity in Cancer screening data, Wellcome Trust Sanger Institute”

How the values were obtained:
Experiment in all cases: cells
HCC1954 = type: functional, cell-based, Homo sapiens; conditions: Homo sapiens, HCC1954;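 also: growth inhibition of human HCC1954 cells, read out with a cell viability assay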
Description: SANGER: Inhibition of human HCC1954 cell growth in a cell viability assay.

SW1990 = type: functional, cell-based, Homo sapiens; conditions: Homo sapiens, SW1990;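 also: cell growth inhibition determined with a viability assay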
Description: SANGER: Inhibition of human SW1990 cell growth in a cell viability assay.

MC-IXC = type: functional, cell-based, Homo sapiens; conditions: Homo sapiens, MC-IXC;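 also: growth inhibition of MC-IXC cells, read out with a cell viability assay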
Description: SANGER: Inhibition of human MC-IXC cell growth in a cell viability assay.

T84 = type: functional, cell-based, Homo sapiens; conditions: Homo sapiens, T84;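 also: growth inhibition measured with a cell viability readout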
Description: SANGER: Inhibition of human T84 cell growth in a cell viability assay.

TE-9 = type: functional, cell-based, Homo sapiens; conditions: Homo sapiens, TE-9;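 also: cell growth inhibition, measured with a cell viability readout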
Description: SANGER: Inhibition of human TE-9 cell growth in a cell viability assay.

CAKI-1 = type: functional, cell-based, Homo sapiens; conditions: Homo sapiens, CAKI-1;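 also: growth inhibition of CAKI-1 cells, measured by a cell viability assay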
Description: SANGER: Inhibition of human CAKI-1 cell growth in a cell viability assay.

NCI-H1437 = type: functional, cell-based, Homo sapiens; conditions: Homo sapiens, NCI-H1437;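 also: growth inhibition of human NCI-H1437 cells, read out by a cell viability assay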
Description: SANGER: Inhibition of human NCI-H1437 cell growth in a cell viability assay.

SN12C = type: functional, cell-based, Homo sapiens; conditions: Homo sapiens, SN12C;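 also: growth inhibition of human SN12C cells, measured by a cell viability assay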
Description: SANGER: Inhibition of human SN12C cell growth in a cell viability assay.

MEL-HO = type: functional, cell-based, Homo sapiens; conditions: Homo sapiens, MEL-HO
Description: SANGER: Inhibition of human MEL-HO cell growth in a cell viability assay.

TGBC1TKB = type: functional, cell-based, Homo sapiens; conditions: Homo sapiens, TGBC1TKB;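 also: growth inhibition of TGBC1TKB cells, read out by a cell viability assay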
Description: SANGER: Inhibition of human TGBC1TKB cell growth in a cell viability assay.

MOLT-16 = type: functional, cell-based; conditions: Homo sapiens;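 also: growth inhibition of human MOLT-16 cells, read out with a cell viability assay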
Description: SANGER: Inhibition of human MOLT-16 cell growth in a cell viability assay.

CAPAN-1 = type: functional, cell-based, Homo sapiens; conditions: Homo sapiens, CAPAN-1;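 also: growth suppression of CAPAN-1 cells, read out by a cell viability assay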
Description: SANGER: Inhibition of human CAPAN-1 cell growth in a cell viability assay.

NCI-N87 = type: functional, cell-based, Homo sapiens; conditions: Homo sapiens, NCI-N87;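 also: growth inhibition of human NCI-N87 cells, read out with a cell viability assay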
Description: SANGER: Inhibition of human NCI-N87 cell growth in a cell viability assay.

NCI-H1793 = type: functional, cell-based, Homo sapiens; conditions: Homo sapiens, NCI-H1793;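 also: cell growth inhibition, read out by a cell viability assay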
Description: SANGER: Inhibition of human NCI-H1793 cell growth in a cell viability assay.

KMOE-2 = type: functional, cell-based; conditions: Homo sapiens;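 also: growth inhibition of human KMOE-2 cells, read out with a cell viability assay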
Description: SANGER: Inhibition of human KMOE-2 cell growth in a cell viability assay.

SNU-449 = type: functional, cell-based, Homo sapiens; conditions: Homo sapiens, SNU-449
Description: SANGER: Inhibition of human SNU-449 cell growth in a cell viability assay.

D-502MG = type: functional, cell-based, Homo sapiens; conditions: Homo sapiens, D-502MG
Description: SANGER: Inhibition of human D-502MG cell growth in a cell viability assay.

KU-19-19 = type: functional, cell-based, Homo sapiens; conditions: Homo sapiens, KU-19-19
Description: SANGER: Inhibition of human KU-19-19 cell growth in a cell viability assay.

OE33 = type: functional, cell-based, Homo sapiens; conditions: Homo sapiens, OE33;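 also: growth inhibition of human OE33 cells, measured by a cell viability assay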
Description: SANGER: Inhibition of human OE33 cell growth in a cell viability assay.

NCI-H358 = type: functional, cell-based, Homo sapiens; conditions: Homo sapiens, NCI-H358;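 also: growth inhibition of NCI-H358 human cells, read out with a cell viability assay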
Description: SANGER: Inhibition of human NCI-H358 cell growth in a cell viability assay.

NCI-H1770 = type: functional, cell-based; conditions: Homo sapiens;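 also: growth inhibition of NCI-H1770 cells determined with a viability readout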
Description: SANGER: Inhibition of human NCI-H1770 cell growth in a cell viability assay.

KYSE-270 = type: functional, cell-based, Homo sapiens; conditions: Homo sapiens, KYSE-270;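 also: cell growth inhibition measured with a viability assay in the human KYSE-270 line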
Description: SANGER: Inhibition of human KYSE-270 cell growth in a cell viability assay.

MZ7-mel = type: functional, cell-based, Homo sapiens; conditions: Homo sapiens, MZ7-mel;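 also: growth inhibition of human MZ7-mel cells, measured by a cell viability assay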
Description: SANGER: Inhibition of human MZ7-mel cell growth in a cell viability assay.

KS-1 = type: functional, cell-based, Homo sapiens; conditions: Homo sapiens, KS-1;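 also: growth inhibition of KS-1 cells, read out with a cell viability assay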
Description: SANGER: Inhibition of human KS-1 cell growth in a cell viability assay.

SK-HEP1 = type: functional, cell-based, Homo sapiens, SK-HEP-1; conditions: Homo sapiens, SK-HEP1;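 also: cell viability readout used to quantify reduction in proliferation of human SK-HEP-1 cells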
Description: SANGER: Inhibition of human SK-HEP-1 cell growth in a cell viability assay.

HT-1080 = type: functional, cell-based, Homo sapiens; conditions: Homo sapiens, HT-1080
Description: SANGER: Inhibition of human HT-1080 cell growth in a cell viability assay.

NCI-H1623 = type: functional, cell-based, Homo sapiens; conditions: Homo sapiens, NCI-H1623;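 also: cell viability assay used as the read-out for growth inhibition of NCI-H1623 cells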
Description: SANGER: Inhibition of human NCI-H1623 cell growth in a cell viability assay.

MHH-NB-11 = type: functional, cell-based, Homo sapiens; conditions: Homo sapiens, MHH-NB-11;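 also: growth inhibition of human MHH-NB-11 cells, read out by a cell viability assay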
Description: SANGER: Inhibition of human MHH-NB-11 cell growth in a cell viability assay.

KALS-1 = type: functional, cell-based, Homo sapiens; conditions: Homo sapiens, KALS-1;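 also: growth inhibition of KALS-1 cells, determined with a cell viability assay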
Description: SANGER: Inhibition of human KALS-1 cell growth in a cell viability assay.

GI-ME-N = type: functional, cell-based, Homo sapiens; conditions: Homo sapiens, GI-ME-N;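 also: growth inhibition of human GI-ME-N cells, read out with a cell viability assay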
Description: SANGER: Inhibition of human GI-ME-N cell growth in a cell viability assay.

UACC-257 = type: functional, cell-based, Homo sapiens; conditions: Homo sapiens, UACC-257
Description: SANGER: Inhibition of human UACC-257 cell growth in a cell viability assay.

Ca9-22 = type: functional, cell-based, Homo sapiens; conditions: Homo sapiens, Ca9-22;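 also: growth inhibition of Ca9-22 cells, read out with a cell viability assay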
Description: SANGER: Inhibition of human Ca9-22 cell growth in a cell viability assay.

PANC-03-27 = type: functional, cell-based, Homo sapiens; conditions: Homo sapiens, PANC-03-27
Description: SANGER: Inhibition of human PANC-03-27 cell growth in a cell viability assay.

NCI-H69 = type: functional, cell-based; conditions: Homo sapiens;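 also: growth inhibition of the cell line, read out with a cell viability assay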
Description: SANGER: Inhibition of human NCI-H69 cell growth in a cell viability assay.

VA-ES-BJ = type: functional, cell-based, Homo sapiens; conditions: Homo sapiens, VA-ES-BJ;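 also: growth inhibition of the VA-ES-BJ cell line, read out by a cell viability assay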
Description: SANGER: Inhibition of human VA-ES-BJ cell growth in a cell viability assay.

CAL-85-1 = type: functional, cell-based; conditions: Homo sapiens;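 also: growth inhibition of human CAL-85-1 cells, read out with a cell viability assay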
Description: SANGER: Inhibition of human CAL-85-1 cell growth in a cell viability assay.

L-363 = type: functional, cell-based; conditions: Homo sapiens
Description: SANGER: Inhibition of human L-363 cell growth in a cell viability assay.

RVH-421 = type: functional, cell-based, Homo sapiens; conditions: Homo sapiens, RVH-421
Description: SANGER: Inhibition of human RVH-421 cell growth in a cell viability assay.

SK-MEL3 = type: functional, cell-based, Homo sapiens, SK-MEL-3; conditions: Homo sapiens, SK-MEL3;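 also: growth inhibition of human SK-MEL-3 cells, read out with a cell viability assay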
Description: SANGER: Inhibition of human SK-MEL-3 cell growth in a cell viability assay.

NY = type: functional, cell-based, Homo sapiens; conditions: Homo sapiens, NY
Description: SANGER: Inhibition of human NY cell growth in a cell viability assay.

JVM-3 = type: functional, cell-based; conditions: Homo sapiens;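 also: growth inhibition of human JVM-3 cells, read out with a cell viability assay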
Description: SANGER: Inhibition of human JVM-3 cell growth in a cell viability assay.

KP-N-YN = type: functional, cell-based; conditions: Homo sapiens;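 also: growth inhibition of KP-N-YN cells, read out with a cell viability assay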
Description: SANGER: Inhibition of human KP-N-YN cell growth in a cell viability assay.

NCI-H292 = type: functional, cell-based, Homo sapiens; conditions: Homo sapiens, NCI-H292;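 also: growth inhibition of NCI-H292 cells, read out with a cell viability assay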
Description: SANGER: Inhibition of human NCI-H292 cell growth in a cell viability assay.

639-V = type: functional, cell-based, Homo sapiens; conditions: Homo sapiens, 639-V;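 also: growth inhibition of 639-V cells, read out with a cell viability assay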
Description: SANGER: Inhibition of human 639-V cell growth in a cell viability assay.

CWR22R = type: functional, cell-based, Homo sapiens; conditions: Homo sapiens, 22Rv1;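 also: growth inhibition of 22Rv1 cells, read out with a cell viability assay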
Description: SANGER: Inhibition of human 22RV1 cell growth in a cell viability assay.

MIA PaCa-2 = type: functional, cell-based, Homo sapiens; conditions: Homo sapiens, MIA PaCa-2;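 also: growth inhibition of MIA PaCa-2 cells, read out with a cell viability assay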
Description: SANGER: Inhibition of human MIA-PaCa-2 cell growth in a cell viability assay.

HCC1806 = type: functional, cell-based, Homo sapiens; conditions: Homo sapiens, HCC1806;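 also: growth inhibition of the cancer cell line, determined with a cell viability assay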
Description: SANGER: Inhibition of human HCC1806 cell growth in a cell viability assay.

SBC-1 = type: functional, cell-based; conditions: Homo sapiens;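 also: cell viability assay measuring growth inhibition of the SBC-1 cell line, IC50 being the concentration that halves growth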
Description: SANGER: Inhibition of human SBC-1 cell growth in a cell viability assay.

D-542MG = type: functional, cell-based, Homo sapiens; conditions: Homo sapiens, D-542MG
Description: SANGER: Inhibition of human D-542MG cell growth in a cell viability assay.

SK-LMS-1 = type: functional, cell-based, Homo sapiens; conditions: Homo sapiens, SK-LMS-1;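 also: growth inhibition of human SK-LMS-1 cells, read out with a cell viability assay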
Description: SANGER: Inhibition of human SK-LMS-1 cell growth in a cell viability assay.

Measured: IC50

O=C(c1cc(Cc2n[nH]c(=O)c3ccccc23)ccc1F)N1CCN(C(=O)C2CC2)CC1 [OLAPARIB]
4.81 µM: SBC-1
3.63 µM: MC-IXC
not listed: D-542MG | SK-LMS-1
> 5 µM: all other assays above

CC(=O)O[C@@H]1[C@@H](OC(C)=O)[C@@H](O)[C@H](Oc2c(-c3ccc(O)cc3)oc3cc(O)cc(O)c3c2=O)O[C@H]1C
7.74 µM: SK-MEL3
not listed: KMOE-2
> 10 µM: all other assays above

C=CCNC1=C2C[C@@H](C)C[C@H](OC)[C@H](O)[C@@H](C)/C=C(\C)[C@H](OC(N)=O)[C@@H](OC)/C=C\C=C(/C)C(=O)NC(=CC1=O)C2=O [TANESPIMYCIN]
0.231 µM: KYSE-270
0.218 µM: TE-9
0.976 µM: NCI-H69
0.321 µM: CAKI-1
0.822 µM: UACC-257
0.385 µM: NCI-H1793
0.772 µM: GI-ME-N
0.0821 µM: L-363
0.0136 µM: KS-1
0.0101 µM: MIA PaCa-2
0.114 µM: KALS-1
0.267 µM: SBC-1
0.191 µM: RVH-421
0.638 µM: JVM-3
0.0445 µM: VA-ES-BJ
0.0844 µM: HT-1080
0.0804 µM: TGBC1TKB
0.103 µM: PANC-03-27
0.851 µM: OE33
0.131 µM: NCI-H292
0.0713 µM: HCC1806
0.122 µM: SW1990 | NCI-H1437
0.0259 µM: NCI-N87
0.15 µM: 639-V
0.687 µM: NCI-H358
0.0726 µM: MEL-HO
0.176 µM: MZ7-mel
0.101 µM: SN12C
0.815 µM: SK-MEL3
0.248 µM: CAPAN-1
not listed: KMOE-2
> 1 µM: all other assays above

CN(Cc1cnc2nc(N)nc(N)c2n1)c1ccc(C(=O)N[C@@H](CCC(=O)O)C(=O)O)cc1 [METHOTREXATE]
0.0116 µM: MOLT-16
0.147 µM: GI-ME-N
0.0143 µM: L-363
0.016 µM: JVM-3
0.0521 µM: KYSE-270
0.0974 µM: KMOE-2
0.00198 µM: NCI-H1770
not listed: NCI-H69 | D-542MG | SK-LMS-1
> 0.2 µM: all other assays above

O=c1cc(-c2cccc3c2Sc2ccccc2S3)oc(N2CCOCC2)c1 [KU-55933]
9.81 µM: NCI-H1437
8.29 µM: SK-MEL3
not listed: KMOE-2 | NCI-H69 | SBC-1
> 10 µM: all other assays above
